Usually IC50 stands for the concentration that inhibits the measured activity by half. Low readings indicate greater potency, high ones weaker potency.

Chain of Protein-arginine deiminase type-4 (Q9UM07 whole entry): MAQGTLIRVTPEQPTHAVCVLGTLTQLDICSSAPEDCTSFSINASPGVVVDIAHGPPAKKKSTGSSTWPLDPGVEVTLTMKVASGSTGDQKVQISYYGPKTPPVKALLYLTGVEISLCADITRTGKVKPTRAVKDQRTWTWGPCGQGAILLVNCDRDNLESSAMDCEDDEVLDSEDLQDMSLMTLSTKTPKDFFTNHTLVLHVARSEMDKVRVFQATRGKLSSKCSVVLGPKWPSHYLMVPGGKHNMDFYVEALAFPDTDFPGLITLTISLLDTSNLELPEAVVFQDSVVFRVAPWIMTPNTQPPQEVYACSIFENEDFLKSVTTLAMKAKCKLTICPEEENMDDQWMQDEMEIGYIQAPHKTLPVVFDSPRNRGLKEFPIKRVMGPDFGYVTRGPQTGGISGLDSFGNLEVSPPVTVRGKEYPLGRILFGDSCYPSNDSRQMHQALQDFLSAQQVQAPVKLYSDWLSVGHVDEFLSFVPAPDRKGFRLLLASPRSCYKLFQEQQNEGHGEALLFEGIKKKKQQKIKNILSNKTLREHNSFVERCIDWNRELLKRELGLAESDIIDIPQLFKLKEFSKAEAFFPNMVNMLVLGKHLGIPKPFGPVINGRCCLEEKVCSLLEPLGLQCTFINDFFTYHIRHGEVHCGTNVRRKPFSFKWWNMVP

This assay has as its target Protein-arginine deiminase type-4 (Homo sapiens, UniProt Q9UM07). In words: Inhibition of human PAD4 using BAEE as substrate incubated for 30 mins by spectrophotometric based assay.
Compound `CC1NC(=O)[C@@H]2CC2CCCC(F)(F)Cn2c(-c3nc4cc(C(=O)N5CCC[C@@H](N)[C@H]5C)cc(Cl)c4n3C3CC3)cc3ccc1nc32` (stereo partly specified) had an IC50 of 6 nM.

`Cc1ccc2c(n1)CCCCCn1c(-c3nc4cc(C(=O)N5C[C@H](N)[C@@H]6CC[C@H]5C6)cc(F)c4n3C3CC3)cc3ccc(nc31)C(C)NC2=O` (stereo partly specified) came in with an IC50 of 6 nM.

`[2H]C1([2H])[C@H](N)[C@@H]2CC[C@@H](C2)N1C(=O)c1cc(OC)c2c(c1)nc(-c1cc3ccc4nc3n1CCCCCc1ccccc1C(=O)NC4C)n2C` (stereo partly specified) showed an IC50 of 5 nM.

`CC1NC(=O)c2cc3sccc3nc2CCCCCn2c(-c3nc4cc(C(=O)N5CCC[C@@H](N)[C@H]5C)cc(F)c4n3C3CC3)cc3ccc1nc32` (stereo partly specified) showed an IC50 of 5 nM.

Turning to `COc1cc(C(=O)N2C[C@H](N)[C@@H]3CC[C@H]2C3)cc2nc(-c3cc4ccc5nc4n3CCCCCC3[C@H](C(=O)NC5C)C3(F)F)n(C)c12` (stereo partly specified), inhibition was half-maximal at 5 nM (IC50).

Consider `CC1NC(=O)[C@@H]2C[C@@]2(F)CCCC(F)(F)Cn2c(-c3nc4cc(C(=O)N5CCC[C@@H](N)[C@H]5C)cc(F)c4n3C3CC3)cc3ccc1nc32` (stereo partly specified), for which the IC50 stood at 5 nM.
